Test results: patent publication US8734580B2, “Carbonyl propyl sulfuryl anthrapyridone sulfonic acid compounds and their preparation methods and applications” (Dalian University of Technology, priority 2011, dated 2014)

Legend:
Format in all cases: physicochemical
[1] = Xenon lamp light-resistance test of the printed images; conditions: ink with 6 parts dye, ink-jet printed on glossy photo paper; xenon lamp 0.36 W/m^2, 50 h, 60% RH, 24° C.; grade by color difference ΔE
Procedure: (§1) The mixture product M1, M2 or M3 and the pure compound obtained by separation according to the embodiments 1-3 are used as the magenta colorant, and the ink composition is prepared according to the formula shown in following table 1, and the magenta aqueous ink composition is obtained by filtering with a 0.45 μm membrane filter, wherein triethanolamine is added to adjust the pH value of the ink composition to 8-10, and deionized water is added to make the total amount reach 100 parts-by-weight (PBW).
(§2) Use an ink-jet printer (Epson 270 manufactured by Epson Company), glossy photo paper (Epson) and the above described ink compositions for ink-jet printing.
(1) Xenon Lamp Light-Resistance Test of the Printed Images
Irradiate the printed glossy photo paper manufactured by Canon and Epson with Xenon-lamp Weathering Test Chamber ZG-P (manufactured by China Surui Company) at 60% RH and 24° C. with illuminance of 0.36 W/m^2 for 50 h to test the color difference (ΔE) before and after the test. The color difference (ΔE) is calculated from the differences of values of L*, a*, b* before and after the test in the above described color measurement system (Unterlab) by the followings formula: ΔE=((difference of L*)^2+(difference of a*)^2+(difference of b*)^2)^1/2.
Three grades will be divided for the evaluation based on the following benchmark: […]

[2] = Ozone gas resistance of the printed images; conditions: ink with 6 parts dye, printed on glossy photo paper; 40 ppm ozone, 60% RH, 24° C.; grade by color difference ΔE
Procedure: Use an ink-jet printer (Epson 270 manufactured by Epson Company), glossy photo paper (Epson) and the above described ink compositions for ink-jet printing. (2) Ozone Gas Resistance of the Printed Images Place the printed images in the Ozone Weathering Test Chamber (manufactured by China Surui Company) at 60% RH, 24° C. and 40 ppm ozone. Calculated the color difference (ΔE) before and after the test by the same method as described in (1) above and evaluate it in 3 grades based on the following benchmark: ΔE<10 ∘ ΔE<20 Δ ΔE>20 x

[3] = Moisture resistance of the printed images; design: key: ∘: No bleeding; Δ: Slight bleeding; x: Notable bleeding; conditions: printed images at 50° C. and 90% RH for 168 h; bleeding judged by bare eyes
Procedure: as §1, §2
(3) Moisture Resistance of the Printed Images
Place the printed images in the Constant Temperature and Humidity Chamber (manufactured by China Surui Company) at 50° C. and 90% RH for 168 h; judge the bleeding of the ink by bare eyes before and after the test and evaluate it in 3 grades based on the following benchmark: […]

[4] = Evaluation of the dye solubility in water; conditions: grade by g/100 g water
Excerpt: (D) Evaluation of the Dye Solubility in Water (g/100 g Water)
Solubility of the dye in water >30 ∘
Solubility of the dye in water >15-20 Δ
Solubility of the dye in water <15 x

[5] = Evaluation of long-term stability of the dye in aqueous solvent system; design: key: ∘: No precipitation; Δ: Slight precipitation; x: Notable precipitation; conditions: 20 parts dye, 70 parts water, 10 parts ethylene glycol; 50° C. for 7d, then 0° C. for 7d; filtered, precipitation graded
Procedure: (E) Evaluation of Long-Term Stability of the Dye in Aqueous Solvent System
Heat and dissolve the system of 20 parts of dyes, 70 parts of water and 10 parts of ethylene glycol; after the solution cools down, store it airtight at a constant temperature of 50° C. for 7d; cool it down and store it at 0° C. for 7d; filter the solution and evaluate it in 3 grades based on the following benchmark: […]

| Structure (SMILES) | Ultraviolet resistance of ink printed images [1] | Ozone resistance of ink printed images [2] | Water resistance of ink printed images [3] | Solubility of dye in water [4] | Long-term stability of the dye in aqueous solvent system [5] |
| --- | --- | --- | --- | --- | --- |
| O=S(=O)([O-])c1cc(Nc2nc(Nc3ccc(/C=C/c4ccc(Nc5nc(Nc6cc(S(=O)(=O)[O-])cc7cc(S(=O)(=O)[O-])c(N=Nc8ccccc8)c(O)c67)nc(N6CCOCC6)n5)cc4S(=O)(=O)[O-])c(S(=O)(=O)[O-])c3)nc(N3CCOCC3)n2)c2c(O)c(N=Nc3ccccc3)c(S(=O)(=O)[O-])cc2c1.[Na+].[Na+].[Na+].[Na+].[Na+].[Na+] [C.I. direct red 227, reference compound] | x (ΔE>20) | x (ΔE>20) | Δ | x (Solubility of the dye in water <15) | Δ |
| O=C(CCCS(=O)(=O)c1cc(S(=O)(=O)O)c(Nc2cc(S(=O)(=O)O)c3[nH]c(=O)c(C(=O)c4cccc(S(=O)(=O)O)c4)c4c3c2C(=O)c2ccccc2-4)c(S(=O)(=O)O)c1)c1cccc(S(=O)(=O)O)c1 [Dp4] | ∘ (ΔE<10) | ∘ (ΔE<10) | ∘ | ∘ (Solubility of the dye in water >30) | ∘ |
| O=C(O)CCCS(=O)(=O)c1cc(S(=O)(=O)O)c(Nc2cc(S(=O)(=O)O)c3[nH]c(=O)c(C(=O)c4cccc(S(=O)(=O)O)c4)c4c3c2C(=O)c2ccccc2-4)c(S(=O)(=O)O)c1 [Dp2] | ∘ (ΔE<10) | ∘ (ΔE<10) | ∘ | ∘ (Solubility of the dye in water >30) | ∘ |
| O=C(c1cccc(S(=O)(=O)O)c1)c1c2c3c(c(Nc4c(S(=O)(=O)O)cc(S(=O)(=O)CCC5C(=O)c6ccccc6C5=O)cc4S(=O)(=O)O)cc(S(=O)(=O)O)c3[nH]c1=O)C(=O)c1ccccc1-2 [Dp8] | ∘ (ΔE<10) | ∘ (ΔE<10) | ∘ | ∘ (Solubility of the dye in water >30) | ∘ |
| O=C(c1cccc(S(=O)(=O)O)c1)c1c2c3c(c(Nc4c(S(=O)(=O)O)cc(S(=O)(=O)CCC5C(=O)c6ccc(S(=O)(=O)O)cc6C5=O)cc4S(=O)(=O)O)cc(S(=O)(=O)O)c3[nH]c1=O)C(=O)c1ccccc1-2 (stereo not shown) [Dp10] | ∘ (ΔE<10) | ∘ (ΔE<10) | ∘ | ∘ (Solubility of the dye in water >30) | ∘ |
